The results in this text go back to US12545685B2 (Daiichi Sankyo Company, Limited, priority 2011, dated 2026).

This assay concerns the target T1, Mdm2/p53 binding (GST-Mdm2 / His-p53) (Homo sapiens, UniProt Q00987, L33E).
T1 construct: Mdm2 partial protein having Mdm2 amino acids at positions 25 to 108
Kind of assay: Mdm2/p53 binding assay (HTRF, His-p53 and GST-Mdm2). Conditions: His-p53 (aa 1-132) and GST-Mdm2 (aa 25-108, L33E) 6.25 nM each; 25°C, 1 hour; values given as ranges. A digest of the protocol:
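His-p53 (aa 1–132) and GST-Mdm2 (aa 25–108, L33E) were prepared at 6.25 nM each in the protein dilution (20 mM HEPES pH 7.4, 150 mM NaCl, 0.1% BSA). Compound in 10% DMSO buffer and XL665 anti-His/Eu anti-GST antibodies (KF buffer) were added, with 1 h at 25 °C. The 665/620 nm TR-FRET ratio gave T/C and a sigmoid-fitted IC50.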

In general, IC50 refers to the concentration at which inhibition is half-maximal. A high value points to weaker potency in that assay.

T1 sequence (Q00987 25-108 L33E): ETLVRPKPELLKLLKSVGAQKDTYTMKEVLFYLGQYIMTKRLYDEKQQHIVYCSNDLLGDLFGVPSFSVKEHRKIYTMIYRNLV

Consider `CNC(=O)C[C@@H]1CC[C@@H](NC(=O)[C@@H]2NC3(CC(CF)(CF)C3)[C@@]3(C(=O)Nc4cc(Cl)ccc43)[C@H]2c2cccc(Cl)c2F)CO1` [Example 151, (3′R, 4′S,5′R)-6″-chloro-4′-(3-chloro-2-fluorophenyl)-3,3-bis(fluoromethyl)-N-{(3R,6S)-6-[2-(methylamino)-2-oxoethyl]tetrahydro-2H-pyran-3-yl}=2″-oxo-1″,2″-dihydrodispiro[cyclobutane-1,2′-pyrrolidine-3′,3′-indole]-5′-carboxamide], for which the concentration for half-maximal inhibition (IC50) was in the range of 1 to 50 nM. `NC(=O)[C@H]1C[C@H](NC(=O)[C@@H]2NC3(CC(CF)(CF)C3)[C@@]3(C(=O)Nc4cc(Cl)ccc43)[C@H]2c2cccc(Cl)c2F)C1` [Example 134, (3′R, 4′S,5′R)—N-(trans-3-carbamoylcyclobutyl)-6″-chloro-4′-(3-chloro-2-fluorophenyl)-3,3-bis(fluoromethyl)-2″-oxo-1″,2″-dihydrodispiro[cyclobutane-1,2′-pyrrolidine-3′,3″-indole]-5′-carboxamide] yielded an IC50 of 1 to 50 nM. With `CC1(C)CCC2(CC1)N[C@@H](C(=O)N[C@H]1CO[C@H](CO)C(C)(O)C1)[C@H](c1ccnc(Cl)c1F)[C@]21C(=O)Nc2cc(Cl)ccc21` (single isomer, unassigned) [Example 85] the figure was 1 to 50 nM; with `CO[C@]1(CO)CC[C@@H](NC(=O)[C@@H]2NC3(CCC(C)(C)CC3)[C@@]3(C(=O)Nc4nc(Cl)ccc43)[C@H]2c2ccnc(Cl)c2F)CC1` [Example 82, (3′R, 4′S,5′R)-6″-chloro-4′-(2-chloro-3-fluoropyridin-4-yl)-N-[trans-4-(hydroxymethyl)-4-methoxycyclohexyl]-4,4-dimethyl-2″-oxo-1″,2′-dihydrodispiro[cyclohexane-1,2′-pyrrolidine-3′,3″-pyrrolo[2,3-b]pyridine]-5′-carboxamide], 1 to 50 nM. The figure for `CC1(C)CCC2(CC1)N[C@@H](C(=O)N[C@@H]1CCC(C)(C(N)=O)OC1)[C@H](c1ccnc(Cl)c1F)[C@]21C(=O)Nc2cc(Cl)ccc21` (stereo partly drawn) [Example 187, (3′R, 4′S,5′R)—N-[(3R)-6-carbamoyl-6-methyltetrahydro-2H-pyran-3-yl]-6″-chloro-4′-(2-chloro-3-fluoropyridin-4-yl)-4,4-dimethyl-2″-oxo-1″,2″-dihydrodispiro[cyclohexane-1,2′-pyrrolidine-3′,3″-indole]-5′-carboxamide] is 1 to 50 nM. The figure for `CC1(C)CCC2(CC1)N[C@@H](C(=O)N[C@H]1CC[C@@](O)(CO)CC1)[C@H](c1cccc(Cl)c1F)[C@]21C(=O)Nc2cc(Cl)ccc21` [Example 33, (3′R, 4′S,5′R)-6″-chloro-4′-(3-chloro-2-fluorophenyl)-N-[trans-4-hydroxy-4-(hydroxymethyl)cyclohexyl]-4,4-dimethyl-2″-oxo-1″,2″-dihydrodispiro[cyclohexane-1,2′-pyrrolidine-3′,3″-indole]-5′-carboxamide] is 1 to 50 nM. `CC1(C)CCC2(CC1)N[C@@H](C(=O)N[C@@H]1CC[C@@H](C(C)(C)O)OC1)[C@H](c1ccnc(Cl)c1)[C@]21C(=O)Nc2cc(Cl)ccc21` [Example 10, (3′R, 4′R, 5′R)-6″-chloro-4′-(2-chloropyridin-4-yl)-N-[(3R,6S)-6-(1-hydroxy-1-methylethyl)tetrahydro-2H-pyran-3-yl]-4,4-dimethyl-2″-oxo-1″,2″-dihydrodispiro[cyclohexane-1,2′-pyrrolidine-3′,3″-indole]-5′-carboxamide] showed a 50% inhibitory concentration (IC50) of 50 to 100 nM. For `O=C(N[C@@H]1CC[C@@H](CO)OC1)[C@@H]1NC2(CC(CF)(CF)C2)[C@@]2(C(=O)Nc3cc(Cl)c(F)cc32)[C@H]1c1ccnc(Cl)c1F` [Example 163, (3′R, 4′S,5′R)-6″-chloro-4′-(2-chloro-3-fluoropyridin-4-yl)-5″-fluoro-3,3-bis(fluoromethyl)-N-[(3R,6S)-6-(hydroxymethyl)tetrahydro-2H-pyran-3-yl]-2″-oxo-1″,2″-dihydrodispiro[cyclobutane-1,2′-pyrrolidine-3′,3″-indole]-5′-carboxamide], the IC50 is 50 to 100 nM.

As for `CC1(C)CCC2(CC1)N[C@@H](C(=O)N[C@H]1C[C@H](CO)C1)[C@H](c1ccnc(Cl)c1F)[C@]21C(=O)Nc2cc(Cl)ccc21` [Example 119, (3′R,4′S,5′R)-6″-chloro-4′-(2-chloro-3-fluoropyridin-4-yl)-N-[trans-3-(hydroxymethyl)cyclobutyl]-4,4-dimethyl-2″-oxo-1″,2″-dihydrodispiro[cyclohexane-1,2′-pyrrolidine-3′,3″-indole]-5′-carboxamide], the IC50 was in the range of 1 to 50 nM. With `O=C(N[C@@H]1CC[C@@H](CO)OC1)[C@@H]1NC2(CC(CF)(CF)C2)[C@@]2(C(=O)Nc3cc(Cl)ccc32)[C@H]1c1cccc(Cl)c1` [Example 175, (3′R, 4′R, 5′R)-6″-chloro-4′-(3-chlorophenyl)-3,3-bis(fluoromethyl)-N-[(3R,6S)-6-(hydroxymethyl)tetrahydro-2H-pyran-3-yl]-2″-oxo-1″,2″-dihydrodispiro[cyclobutane-1,2′-pyrrolidine-3′,3″-indole]-5′-carboxamide] the figure was 50 to 100 nM; with `CC1(C)CCC2(CC1)N[C@@H](C(=O)N[C@H]1CC[C@H](c3nnco3)CC1)[C@H](c1ccnc(Cl)c1F)[C@]21C(=O)Nc2cc(Cl)ncc21` (relative stereo) [Example 190], 50 to 100 nM. With `CCNC(=O)[C@H]1C[C@H](NC(=O)[C@@H]2NC3(CCC(C)(C)CC3)[C@@]3(C(=O)Nc4cc(Cl)ccc43)[C@H]2c2ccnc(Cl)c2F)C1` [Example 118, (3′R,4′S,5′R)-6″-chloro-4′-(2-chloro-3-fluoropyridin-4-yl)-N-[trans-3-(ethylcarbamoyl)cyclobutyl]-4,4-dimethyl-2″-oxo-1″,2″-dihydrodispiro[cyclohexane-1,2′-pyrrolidine-3′,3″-indole]-5′-carboxamide] the figure was 1 to 50 nM. With `CC1(C)CCC2(CC1)N[C@@H](C(=O)N[C@H]1CO[C@H](CO)[C@@H](O)C1)[C@H](c1cccc(Cl)c1F)[C@]21C(=O)Nc2cc(Cl)ccc21` [Example 42, (3′R, 4′S,5′R)-6″-chloro-4′-(3-chloro-2-fluorophenyl)-N-[(3R,5S,6R)-5-hydroxy-6-(hydroxymethyl)tetrahydro-2H-pyran-3-yl]-4,4-dimethyl-2″-oxo-1″,2″-dihydrodispiro[cyclohexane-1,2′-pyrrolidine-3′,3″-indole]-5′-carboxamide] the figure was 1 to 50 nM; with `CCNC(=O)[C@@H]1CC[C@@H](NC(=O)[C@@H]2NC3(CC(CF)(CF)C3)[C@@]3(C(=O)Nc4cc(Cl)ccc43)[C@H]2c2cccc(Cl)c2F)CO1` [Example 141], 1 to 50 nM.

With `Cn1cncc1CNC(=O)[C@@H]1NC2(CCC(C)(C)CC2)[C@@]2(C(=O)Nc3cc(Cl)ccc32)[C@H]1c1ccnc(Cl)c1F` [Example 171, (3′R, 4′S, S′R)-6″-chloro-4′-(2-chloro-3-fluoropyridin-4-yl)-4,4-dimethyl-N-[(1-methyl-1H-imidazol-5-yl)methyl]-2″-oxo-1″,2″-dihydrodispiro[cyclohexane-1,2″-pyrrolidine-3′,3″-indole]-5′-carboxamide], the IC50 is 50 to 100 nM.
